According to paper PMC12655351, “Synthesis and Anticancer Activity Evaluation of New 5-((5-Nitrofuran-2-yl)allylidene)-2-thioxo-4-thiazolidinones” (Pharmaceuticals, 2025):
Where “and” joins values, the source holds several entries; their conditions need not be identical. Identical values can stand only once. Like-named read-outs stand apart in the source and are kept apart here.

Columns and labels:
NCI-H460 = experiment: NCI-60 SRB screen; conditions: NCI-H460, 48 h; for CC50: read-out: LC50
RPMI-8226 = experiment: cells; conditions: Homo sapiens, RPMI-8226, 48 h
NCI/ADR-RES = conditions: 48 h
SN12C = conditions: 48 h
T-47D [1] = experiment: cells; conditions: Homo sapiens, T47D, 48 h; for CC50: read-out: LC50
T-47D [2] = conditions: 48 h
786-0 = conditions: 786-0, 48 h
SW-620 = experiment: NCI-60 SRB screen; conditions: SW-620, 48 h
UACC-257 = experiment: cells; conditions: Homo sapiens, UACC-257, 48 h; for CC50: read-out: LC50, UACC-257, 48 h
ACHN = experiment: NCI-60 SRB screen; conditions: 48 h; for growth GP: 10 μM; for CC50: read-out: LC50, ACHN, 48 h
SK-MEL-2 = experiment: NCI-60 SRB screen; conditions: SK-MEL-2, 48 h; for CC50: Homo sapiens, read-out: LC50, SK-MEL-2, 48 h
CAKI-1 [3] = experiment: cells; conditions: Homo sapiens, CAKI-1, 48 h
CCRF-CEM = experiment: cells; conditions: Homo sapiens, 48 h
HT29 [4] = conditions: HT29, 48 h
SNB-19 = experiment: NCI-60 SRB screen; conditions: for CC50 / TGI / GI50: SNB-19, 48 h; for CC50: read-out: LC50, SNB-19, 48 h
OVCAR-3 = conditions: for GI50 / TGI: OVCAR-3, 48 h
LOX IMVI [5] = experiment: cells; conditions: Homo sapiens, 48 h; for CC50: read-out: LC50, LOX IMVI, 48 h
RXF 393 = experiment: NCI-60 SRB screen; conditions: RXF 393, 10 μM, 48 h
LOX IMVI [6] = conditions: 48 h; for growth GP: 10 μM; for CC50: human
SK-MEL-5 [7] = experiment: cells; conditions: Homo sapiens, SK-MEL-5, 48 h; for CC50: read-out: LC50, SK-MEL-5, 48 h
A498 = conditions: A498, 48 h
HT29 [8] = experiment: cells; conditions: Homo sapiens, HT-29, 48 h; for GI50: HT29, 48 h
NCI-H23 = conditions: for CC50: human
SK-MEL-5 [9] = conditions: for CC50: human
CAKI-1 [10] = conditions: for growth GP: CAKI-1, 10 μM, 48 h; for GI50 / TGI: CAKI-1, 48 h
Prostate Cancer = Prostate Cancer subpanel
K-562 = conditions: K-562, 48 h
SNB-75 = experiment: NCI-60 SRB screen; conditions: SNB-75, 48 h; for CC50: read-out: LC50, SNB-75, 48 h
HCT-116 = conditions: HCT-116, 48 h
SR = conditions: 48 h
KM12 = experiment: NCI-60 SRB screen; conditions: KM12, 48 h
SK-MEL-28 = experiment: cells; conditions: Homo sapiens, SK-MEL-28, 48 h

O=C(O)CCCN1C(=O)/C(=C/C=C/c2ccc([N+](=O)[O-])o2)SC1=S [13b, 4-((Z)-5-((E)-3-(5-Nitrofuran-2-yl)allylidene)-4-oxo-2-thioxothiazolidin-3-yl)butanoic acid]
GI50 (NCI-H460; Homo sapiens): 630 nM | CC50 (NCI-H460; Homo sapiens): 4.94 µM | GI50 (NCI-H460): 330 nM | TGI (NCI-H460): 1.99 µM and 1.39 µM | GI50 (RPMI-8226): 360 nM | CC50 (RPMI-8226; read-out: LC50): > 100 µM | GI50 (NCI/ADR-RES): 260 nM | TGI (NCI/ADR-RES): 1.23 µM and 0.77 µM | growth GP (SN12C; SN12C, 10 μM): -96.81% | GI50 (SN12C; SN12C): 170 nM | GI50 (T-47D [1]; T-47D): 340 nM | CC50 (T-47D [1]): > 100 µM | GI50 (T-47D [2]): 230 nM | GI50 (786-0): 280 nM | TGI (786-0): 1.30 µM and 0.90 µM | GI50 (SW-620; Homo sapiens): 240 nM | GI50 (SW-620): 280 nM | TGI (SW-620): 0.54 µM and 0.83 µM | CC50 (UACC-257): 6.36 µM | growth GP (ACHN): -100.00% | TGI (ACHN): 2.21 µM and 1.35 µM | CC50 (ACHN; Homo sapiens): 4.7 µM | CC50 (SK-MEL-2): 6.12 µM | GI50 (CAKI-1 [3]): 670 nM | GI50 (CCRF-CEM): 190 nM | GI50 (HT29 [4]): 260 nM | CC50 (SNB-19; Homo sapiens): 6.05 µM | growth GP (SNB-19; SNB-19, 10 μM, 48 h): -96.10% | TGI (SNB-19): 3.16 µM and 2.10 µM | TGI (SF-268; SF-268, 48 h): 2.84 µM and 2.89 µM | GI50 (OVCAR-3): 390 nM | TGI (OVCAR-3): 2.04 µM and 1.36 µM | GI50 (LOX IMVI [5]): 190 nM | CC50 (LOX IMVI [5]): 920 nM | growth GP (RXF 393): -97.90% | growth GP (LOX IMVI [6]; LOX IMVI): -96.12% | TGI (LOX IMVI [6]; LOX IMVI): 0.42 µM and 0.39 µM | CC50 (LOX IMVI [6]): 810 nM | GI50 (SK-MEL-5 [7]): 610 nM | CC50 (SK-MEL-5 [7]): 4.61 µM | GI50 (A498): 3.32 µM | TGI (A498): 11.5 µM and 8.16 µM | GI50 (HT29 [8]): 450 nM | CC50 (HT29 [8]; read-out: LC50, HT29, 48 h): 5.44 µM | growth GP (NCI-H23; NCI-H23, 10 μM, 48 h): -93.85% | TGI (NCI-H23; NCI-H23, 48 h): 3.09 µM and 2.04 µM | CC50 (NCI-H23; 48 h): 5.7 µM | growth GP (SK-MEL-5 [9]; SK-MEL-5, 10 μM, 48 h): -98.67% | GI50 (SK-MEL-5 [9]; SK-MEL-5, 48 h): 1210 nM | TGI (SK-MEL-5 [9]; SK-MEL-5, 48 h): 1.97 µM and 2.68 µM | CC50 (SK-MEL-5 [9]; 48 h): 5.96 µM | growth GP (CAKI-1 [10]): -96.66% | GI50 (CAKI-1 [10]): 770 nM | TGI (CAKI-1 [10]): 1.97 µM and 2.04 µM | MG_MID TGI (Prostate Cancer): 2.57 µM | GI50 (K-562): 90 nM | TGI (K-562): > 100 µM | GI50 (SNB-75; Homo sapiens): 380 nM | CC50 (SNB-75; Homo sapiens): 8.73 µM | GI50 (SNB-75): 320 nM | TGI (SNB-75): 1.99 µM and 1.37 µM | GI50 (HCT-116): 170 nM | TGI (HCT-116): 1.15 µM and 0.64 µM

O=C(O)CCCCCN1C(=O)/C(=C/C=C/c2ccc([N+](=O)[O-])o2)SC1=S [14b, 6-((Z)-5-((E)-3-(5-nitrofuran-2-yl)allylidene)-4-oxo-2-thioxothiazolidin-3-yl)hexanoic acid]
GI50 (NCI-H460; Homo sapiens): 1000 nM | CC50 (NCI-H460; Homo sapiens): 5.54 µM | GI50 (NCI-H460): 630 nM | TGI (NCI-H460): 2.36 µM and 2.31 µM | TGI (SR): 0.96 µM | GI50 (RPMI-8226): 330 nM | GI50 (NCI/ADR-RES): 430 nM | TGI (NCI/ADR-RES): 1.85 µM and 2.39 µM | GI50 (SN12C; SN12C): 260 nM | TGI (SN12C; SN12C): 1.36 µM and 0.86 µM | CC50 (SN12C; human): 3.24 µM | CC50 (T-47D [1]): > 100 µM | GI50 (786-0): 320 nM | TGI (786-0): 2.06 µM and 1.23 µM | GI50 (SW-620; Homo sapiens): 230 nM | GI50 (SW-620): 240 nM | TGI (SW-620): 0.57 µM and 0.61 µM | GI50 (KM12; Homo sapiens): 1420 nM | GI50 (KM12): 1190 nM | TGI (KM12): 2.83 µM and 2.67 µM | GI50 (MDA-MB-435; MDA-MB-435, 48 h): 280 nM | CC50 (MDA-MB-435; human, 48 h): 2740 nM | GI50 (UACC-257): 1600 nM | CC50 (UACC-257): 6.27 µM | growth GP (ACHN): -99.76% | GI50 (ACHN): 1210 nM | TGI (ACHN): 2.82 µM and 2.46 µM | GI50 (ACHN; Homo sapiens): 1500 nM | CC50 (ACHN; Homo sapiens): 5.31 µM | CC50 (SK-MEL-2): 6.01 µM | TGI (SK-MEL-2): 2.95 µM and 2.33 µM | GI50 (CAKI-1 [3]): 830 nM | GI50 (SK-MEL-28): 1640 nM | CC50 (SK-MEL-28; read-out: LC50, SK-MEL-28, 48 h): 5.9 µM | GI50 (CCRF-CEM): 180 nM | GI50 (HT29 [4]): 1130 nM | TGI (HT29 [4]): 2.71 µM and 3.39 µM | GI50 (SNB-19; Homo sapiens): 1760 nM | CC50 (SNB-19; Homo sapiens): 7.43 µM | GI50 (SNB-19): 1450 nM | TGI (SNB-19): 3.62 µM and 3.11 µM | GI50 (SF-268; SF-268, 48 h): 1320 nM | TGI (SF-268; SF-268, 48 h): 2.71 µM and 3.63 µM | CC50 (SF-268; human, 48 h): 9.99 µM | growth GP (OVCAR-3; OVCAR-3, 10 μM, 48 h): -95.33% | GI50 (OVCAR-3): 960 nM | TGI (OVCAR-3): 2.35 µM and 2.22 µM | GI50 (LOX IMVI [5]): 200 nM | CC50 (LOX IMVI [5]): 880 nM | growth GP (LOX IMVI [6]; LOX IMVI): -95.58% | GI50 (LOX IMVI [6]; LOX IMVI): 190 nM | TGI (LOX IMVI [6]; LOX IMVI): 0.42 µM and 0.39 µM | CC50 (LOX IMVI [6]): 780 nM | CC50 (SK-MEL-5 [7]): 4.6 µM | GI50 (A498): 10.2 µM | TGI (A498): 20.8 µM and 22.8 µM | GI50 (HT29 [8]): 1190 nM | GI50 (NCI-H23; NCI-H23, 48 h): 1230 nM | TGI (NCI-H23; NCI-H23, 48 h): 3.10 µM and 2.69 µM | CC50 (NCI-H23; 48 h): 5.89 µM | TGI (SK-MEL-5 [9]; SK-MEL-5, 48 h): 1.98 µM and 3.14 µM | CC50 (SK-MEL-5 [9]; 48 h): 6.38 µM | growth GP (CAKI-1 [10]): -96.43% | GI50 (CAKI-1 [10]): 1400 nM | TGI (CAKI-1 [10]): 2.09 µM and 2.72 µM | MG_MID TGI (Prostate Cancer): 3.13 µM | GI50 (K-562): 280 nM | CC50 (SNB-75; Homo sapiens): 5.68 µM | TGI (SNB-75): 2.61 µM and 1.43 µM | GI50 (HCT-116): 200 nM
